Here are results for 50 compounds from ChEMBL document CHEMBL4477225, “Development of a cell viability assay to assess drug metabolite structure-toxicity relationships” (Bioorg Med Chem Lett, 2016).

Common to all, as to details: recombinant enzyme
Data set [1] has as its target Cytochrome P450 2C9 (Homo sapiens, UniProt P11712). Kind of data set: Drug activation in human Hep3B cells assessed as human CYP2C9-mediated drug metabolism-induced cytotoxicity measured as decrease in cell viability at 300 uM pre-incubated with BSO for 18 hrs followed by incubation with compound for 3 hrs in presence of NADPH measured after 24 hrs in absence of compound, CYP3A4 and NADPH by cell titer-glo luminescence assay relative to BSO alone. (ATP-based viability assays read luminescence as a measure of living cells.)

Data set [2] has as its target Cytochrome P450 3A4 (Homo sapiens, UniProt P08684). The experiment in a line: Drug activation in human Hep3B cells assessed as human CYP3A4-mediated drug metabolism-induced cytotoxicity measured as decrease in cell viability at 300 uM pre-incubated with BSO for 18 hrs followed by incubation with compound for 3 hrs in presence of NADPH measured after 24 hrs in absence of compound, CYP3A4 and NADPH by cell titer-glo luminescence assay relative to BSO alone.

In data set [3] the target is Cytochrome P450 2D6 (Homo sapiens, UniProt P10635). The experiment in a line: Drug activation in human Hep3B cells assessed as human CYP2D6-mediated drug metabolism-induced cytotoxicity measured as decrease in cell viability at 300 uM pre-incubated with BSO for 18 hrs followed by incubation with compound for 3 hrs in presence of NADPH measured after 24 hrs in absence of compound, CYP3A4 and NADPH by cell titer-glo luminescence assay relative to BSO alone.
Chain of Cytochrome P450 2D6 (P10635 whole entry): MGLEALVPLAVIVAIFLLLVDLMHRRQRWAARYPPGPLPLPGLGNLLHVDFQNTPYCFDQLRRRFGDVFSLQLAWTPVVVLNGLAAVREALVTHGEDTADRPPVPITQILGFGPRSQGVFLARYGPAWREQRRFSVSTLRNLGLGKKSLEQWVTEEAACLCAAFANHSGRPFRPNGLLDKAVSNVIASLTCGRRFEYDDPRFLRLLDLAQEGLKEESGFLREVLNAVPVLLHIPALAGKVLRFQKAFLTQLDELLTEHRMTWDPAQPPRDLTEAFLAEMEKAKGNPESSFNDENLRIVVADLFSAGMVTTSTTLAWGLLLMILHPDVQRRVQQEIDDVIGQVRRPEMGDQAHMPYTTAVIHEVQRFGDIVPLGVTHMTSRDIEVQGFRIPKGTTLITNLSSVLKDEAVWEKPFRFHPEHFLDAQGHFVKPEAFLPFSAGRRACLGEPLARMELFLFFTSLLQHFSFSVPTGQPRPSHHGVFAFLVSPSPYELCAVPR

Chain of Cytochrome P450 2C9 (P11712 whole entry): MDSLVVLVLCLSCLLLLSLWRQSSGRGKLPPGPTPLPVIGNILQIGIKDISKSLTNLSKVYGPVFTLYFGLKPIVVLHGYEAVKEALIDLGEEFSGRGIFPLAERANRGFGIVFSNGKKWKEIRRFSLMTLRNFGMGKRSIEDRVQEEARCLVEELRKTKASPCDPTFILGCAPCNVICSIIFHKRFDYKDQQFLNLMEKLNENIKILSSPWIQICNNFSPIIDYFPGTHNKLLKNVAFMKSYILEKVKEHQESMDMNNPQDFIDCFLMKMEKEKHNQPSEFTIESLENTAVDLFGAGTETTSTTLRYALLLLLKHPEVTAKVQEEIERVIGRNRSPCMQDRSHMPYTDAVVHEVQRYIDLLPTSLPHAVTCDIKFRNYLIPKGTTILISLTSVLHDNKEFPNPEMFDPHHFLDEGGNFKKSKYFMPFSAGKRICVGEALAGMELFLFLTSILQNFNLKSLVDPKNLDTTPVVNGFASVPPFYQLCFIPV
Chain of Cytochrome P450 3A4 (P08684 whole entry): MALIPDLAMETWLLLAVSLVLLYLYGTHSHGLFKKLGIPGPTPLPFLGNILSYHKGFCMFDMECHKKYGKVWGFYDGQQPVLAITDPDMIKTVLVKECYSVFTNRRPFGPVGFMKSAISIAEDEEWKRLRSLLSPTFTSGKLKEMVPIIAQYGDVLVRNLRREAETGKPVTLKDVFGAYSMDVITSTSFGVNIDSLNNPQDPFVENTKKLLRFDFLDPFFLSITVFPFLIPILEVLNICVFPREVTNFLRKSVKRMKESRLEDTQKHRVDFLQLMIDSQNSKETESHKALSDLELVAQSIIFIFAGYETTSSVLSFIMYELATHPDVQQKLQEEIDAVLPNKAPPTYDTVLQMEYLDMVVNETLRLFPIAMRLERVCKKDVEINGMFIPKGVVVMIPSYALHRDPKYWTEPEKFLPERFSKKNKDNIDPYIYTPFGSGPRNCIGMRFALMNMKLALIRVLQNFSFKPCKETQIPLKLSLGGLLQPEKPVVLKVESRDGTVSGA

In the case of `CC(C(=O)O)c1ccc(-c2ccccc2)c(F)c1` (stereo not drawn) [FLURBIPROFEN], the FC in data set [1], in data set [2] and in data set [3] was 1 in each case.
For the compound `Nc1ccc(C(=O)O)c(O)c1` [AMINOSALICYLIC ACID], the FC in data set [1], in data set [2] and in data set [3] was 1 each time.
`CC(=O)CC(c1ccccc1)c1c(O)c2ccccc2oc1=O` (stereo not drawn) [WARFARIN]: the FC in data set [1], in data set [2] and in data set [3] was 1 throughout.
With `COC1=CC(=O)C[C@@H](C)[C@]12Oc1c(Cl)c(OC)cc(OC)c1C2=O` [GRISEOFULVIN], the FC in data set [1], in data set [2] and in data set [3] was 1 throughout.
For the compound `Nc1ccn([C@@H]2CS[C@H](CO)O2)c(=O)n1` [LAMIVUDINE], the FC in data set [1], in data set [2] and in data set [3] was 1 in each case.
For the compound `O=C(O)CCCCCCNC1c2ccccc2CCc2ccccc21` [AMINEPTINE], the FC in data set [1], in data set [2] and in data set [3] was 1 in each case.
Turning to `COC(=O)CCc1ccc(OCC(O)CNC(C)C)cc1` (stereo not drawn) [ESMOLOL], the FC in data set [1], in data set [2] and in data set [3] was 1 each time.
Regarding `CN(C)/N=N/c1[nH]cnc1C(N)=O` [DACARBAZINE], the FC in data set [2] and in data set [3] was 1 throughout.
With `Cc1cn([C@H]2C=C[C@@H](CO)O2)c(=O)[nH]c1=O` [STAVUDINE], the FC in data set [1], in data set [2] and in data set [3] was 1 each time.
With `COC(c1ccccc1)(c1ccccc1)[C@H](Oc1nc(C)cc(C)n1)C(=O)O` [AMBRISENTAN], the FC in data set [1], in data set [2] and in data set [3] was 1 in each case.
With `CCOC(=O)C1=C[C@@H](OC(CC)CC)[C@H](NC(C)=O)[C@@H](N)C1` [OSELTAMIVIR], the FC in data set [1], in data set [2] and in data set [3] was 1 throughout.
For the compound `CCC1(c2ccccc2)C(=O)NCNC1=O` [PRIMIDONE], the FC in data set [1], in data set [2] and in data set [3] was 1 each time.
For `CCCCCCCCCCCCOS(=O)(=O)O.CC[C@H]1OC(=O)[C@H](C)[C@@H](O[C@H]2C[C@@](C)(OC)[C@@H](O)[C@H](C)O2)[C@H](C)[C@@H](O[C@@H]2O[C@H](C)C[C@H](N(C)C)[C@H]2O)[C@](C)(O)C[C@@H](C)C(=O)[C@H](C)[C@@H](O)[C@]1(C)O`, the FC in data set [2] and in data set [3] was 1 in each case.
As to `Nc1nc2nc[nH]c2c(=S)[nH]1` [THIOGUANINE], the FC in data set [1], in data set [2] and in data set [3] was 1 throughout.
As to `CCCCNC(=O)NS(=O)(=O)c1ccc(C)cc1` [TOLBUTAMIDE], the FC in data set [3] stood at 1.
`Cc1cn([C@H]2C[C@H](N=[N+]=[N-])[C@@H](CO)O2)c(=O)[nH]c1=O` [ZIDOVUDINE]: the FC in data set [1], in data set [2] and in data set [3] was 1 each time.
With `O=C(O)c1cccnc1` [NIACIN], the FC in data set [2] and in data set [3] was 1 in each case.
In the case of `CS(=O)(=O)OCCCCOS(C)(=O)=O` [BUSULFAN], the FC in data set [1], in data set [2] and in data set [3] was 1 throughout.
Turning to `NC(=O)c1cnccn1` [PYRAZINAMIDE], the FC in data set [1], in data set [2] and in data set [3] was 1 throughout.
For `COCCc1ccc(OCC(O)CNC(C)C)cc1` (stereo not drawn) [METOPROLOL], the FC in data set [1], in data set [2] and in data set [3] was 1 each time.
Consider `Nc1c(CC(=O)O)cccc1C(=O)c1ccc(Br)cc1` [BROMFENAC], for which the FC in data set [1], in data set [2] and in data set [3] was 1 each time.
For the compound `Cc1oncc1C(=O)Nc1ccc(C(F)(F)F)cc1` [LEFLUNOMIDE], the FC in data set [2] and in data set [3] was 1 throughout.
Regarding `Clc1cccc(Cl)c1N=C1NCCN1` [CLONIDINE], the FC in data set [1], in data set [2] and in data set [3] was 1 each time.
For `Nc1nc2ncc(CNc3ccc(C(=O)N[C@@H](CCC(=O)O)C(=O)O)cc3)nc2c(=O)[nH]1` [FOLIC ACID], the FC in data set [1], in data set [2] and in data set [3] was 0.6 each time.
Consider `CN(Cc1cnc2nc(N)nc(N)c2n1)c1ccc(C(=O)N[C@@H](CCC(=O)O)C(=O)O)cc1` [METHOTREXATE], for which the FC in data set [2] and in data set [3] was 1 in each case.
For the compound `COc1ccccc1Oc1c(NS(=O)(=O)c2ccc(C(C)(C)C)cc2)nc(-c2ncccn2)nc1OCCO` [BOSENTAN], the FC in data set [1], in data set [2] and in data set [3] was 1 in each case.
For the compound `CCc1ccc(CCOc2ccc(CC3SC(=O)NC3=O)cc2)nc1` (stereo not drawn) [PIOGLITAZONE], the FC in data set [1], in data set [2] and in data set [3] was 1 each time.
With `CCCNC(=O)NS(=O)(=O)c1ccc(Cl)cc1` [CHLORPROPAMIDE], the FC in data set [1], in data set [2] and in data set [3] was 1 in each case.
For the compound `CCCC(CCC)C(=O)O` [VALPROIC ACID], the FC in data set [1], in data set [2] and in data set [3] was 1 in each case.
Consider `CCCCCCCCCCC[C@@H](C[C@@H]1OC(=O)[C@H]1CCCCCC)OC(=O)[C@H](CC(C)C)NC=O` [ORLISTAT], for which the FC in data set [1], in data set [2] and in data set [3] was 1 throughout.
In the case of `O=c1[nH]cnc2c1ncn2[C@H]1CC[C@@H](CO)O1` [DIDANOSINE], the FC in data set [1], in data set [2] and in data set [3] was 1 each time.
With `NC[C@H]1O[C@H](O[C@H]2[C@H](O)[C@@H](O[C@H]3O[C@H](CO)[C@@H](O)[C@H](N)[C@H]3O)[C@H](N)C[C@@H]2N)[C@H](O)[C@@H](O)[C@@H]1O` [KANAMYCIN], the FC in data set [1], in data set [2] and in data set [3] was 1 each time.
In the case of `C[N+](C)(C)CC(=O)O` [BETAINE], the FC in data set [1], in data set [2] and in data set [3] was 1 each time.
For `CC1(C)S[C@@H]2[C@H](NC(=O)[C@H](N)c3ccc(O)cc3)C(=O)N2[C@H]1C(=O)O` [AMOXICILLIN], the FC in data set [1], in data set [2] and in data set [3] was 1 throughout.
Take `CCOc1ccccc1OCCN[C@H](C)Cc1ccc(OC)c(S(N)(=O)=O)c1` [TAMSULOSIN]: the FC in data set [1] and in data set [2] was 1 in each case.
As for `NNC(=O)c1ccncc1` [ISONIAZID], the FC in data set [1], in data set [2] and in data set [3] was 1 throughout.
With `CN(C)c1ccc(O)c2c1C[C@H]1C[C@H]3[C@H](N(C)C)C(O)=C(C(N)=O)C(=O)[C@@]3(O)C(O)=C1C2=O` [MINOCYCLINE], the FC in data set [1], in data set [2] and in data set [3] was 1 in each case.
Regarding `Cc1cccc(C)c1OCC(C)N` (stereo not drawn) [MEXILETINE], the FC in data set [1], in data set [2] and in data set [3] was 1 each time.
For the compound `CC(=O)N(O)CCCCCNC(=O)CCC(=O)N(O)CCCCCNC(=O)CCC(=O)N(O)CCCCCN` [DEFEROXAMINE], the FC in data set [1], in data set [2] and in data set [3] was 1 throughout.
In the case of `CC[C@@H](CO)NCCN[C@@H](CC)CO` [ETHAMBUTOL], the FC in data set [1], in data set [2] and in data set [3] was 1 in each case.
Regarding `CS(=O)(=O)Nc1ccc([N+](=O)[O-])cc1Oc1ccccc1` [NIMESULIDE], the FC in data set [1] was 1.
Consider `O=C(O)c1cc(-c2ccccc2)nc2ccccc12` [CINCHOPHEN], for which the FC in data set [1], in data set [2] and in data set [3] was 1 each time.
`CCc1cccc2c3c([nH]c12)C(CC)(CC(=O)O)OCC3` (stereo not drawn) [ETODOLAC]: the FC in data set [1], in data set [2] and in data set [3] was 1 in each case.
As to `Oc1ncnc2[nH]ncc12` [ALLOPURINOL], the FC in data set [1], in data set [2] and in data set [3] was 1 throughout.
For the compound `Nc1nc(O)c2ncn(COC(CO)CO)c2n1` [GANCICLOVIR], the FC in data set [1], in data set [2] and in data set [3] was 1 each time.
In the case of `C[C@H](CS)C(=O)N1CCC[C@H]1C(=O)O` [CAPTOPRIL], the FC in data set [1], in data set [2] and in data set [3] was 1 throughout.
As for `NC(=O)N1c2ccccc2C=Cc2ccccc21` [CARBAMAZEPINE], the FC in data set [1], in data set [2] and in data set [3] was 1 each time.
On to `CC(C)NCC(O)c1cc(O)cc(O)c1` (stereo not drawn) [METAPROTERENOL], for which the FC in data set [1], in data set [2] and in data set [3] was 1 each time.
For the compound `NC(=O)c1ncn([C@@H]2O[C@H](CO)[C@@H](O)[C@H]2O)n1` [RIBAVIRIN], the FC in data set [2] and in data set [3] was 1 throughout.
As for `Sc1ncnc2nc[nH]c12` [MERCAPTOPURINE ANHYDROUS], the FC in data set [2] and in data set [3] was 1 throughout.
